Reference: ChEMBL document CHEMBL4304811, “Development of a Water-Soluble Indolylmaleimide Derivative IM-93 Showing Dual Inhibition of Ferroptosis and NETosis” (ACS Med Chem Lett, 2019)
Values belong to the compound of their own block, whether it stands above or below them. The source made the active and inactive calls. The rule behind the calls is not given here.

Tests used:
HL-60 = assay: Cytoprotection against human HL60 cells assessed as inhibition of H2O2-induced cell death pretreated for 1 hr followed by H2O2 stimulation measured after 3 hrs by p-iodonitrotetrazolium violet dye based LDH assay; type: functional
Neutrophil [1] = assay: Inhibition of PMA-induced NETosis in human neutrophils assessed as reduction in lipid peroxidation at 2.5 uM preincubated for 30 mins followed by PMA stimulation measured after 30 mins by C11-Bodipy fluorescent dye based flow cytometry; type: functional, cell-based
Neutrophil [2] = assay: Inhibition of PMA-induced NETosis in human neutrophils assessed as inhibition of ROS production at 25 uM pretreated for 25 mins followed by PMA stimulation and measured after 20 mins by DCFH-DA based flow cytometry; type: functional, cell-based
Neutrophil [3] = assay: Inhibition of PMA-induced superoxide production in C57BL6 mouse neutrophils at 2.5 uM preincubated for 30 mins followed by PMA stimulation and measured after 30 mins by luminol-lucignenin based luminescence assay; type: functional, cell-based
NIH3T3 [4] = assay: Inhibition of TBHP-induced ferroptosis in mouse NIH/3T3 cells after 12 hrs by WST-8 assay; type: functional, cell-based; conditions: NIH3T3, 12 h
Neutrophil [5] = assay: Inhibition of PMA-induced NETosis in human neutrophils at 2.5 uM preincubated for 30 mins followed by PMA stimulation and measured after 3 hrs by Hoechst […] staining based fluorescence microscopic analysis; type: functional, cell-based
Neutrophil [6] = assay: Inhibition of PMA-induced NETosis in human neutrophils at 25 uM preincubated for 30 mins followed by PMA stimulation and measured after 3 hrs by Hoechst […] staining based fluorescence microscopic analysis; type: functional, cell-based
NIH3T3 [7] = assay: Inhibition of erastin-induced ferroptosis in mouse NIH/3T3 cells after 24 hrs by WST-8 assay; type: functional, cell-based; conditions: NIH3T3, 24 h
[8] = Aqueous solubility of compound in citrate-phosphate buffer at pH 7.0 after 30 mins by HPLC analysis; type: physicochemical
Neutrophil [9] = assay: Inhibition of PMA-induced NETosis in human neutrophils at […] preincubated for 30 mins followed by PMA stimulation and measured after 3.5 hrs by Hoechst […] staining based fluorescence microscopic analysis; type: functional, cell-based
Neutrophil [10] = assay: Inhibition of PMA-induced superoxide production in C57BL6 mouse neutrophils at 100 uM preincubated for 30 mins followed by PMA stimulation and measured after 30 mins by luminol-lucignenin based luminescence assay; type: functional, cell-based
Neutrophil [11] = assay: Inhibition of PMA-induced NETosis in human neutrophils at 100 uM preincubated for 30 mins followed by PMA stimulation and measured after 3 hrs by Hoechst […] staining based fluorescence microscopic analysis; type: functional, cell-based
Neutrophil [12] = assay: Inhibition of PMA-induced NETosis in human neutrophils assessed as effect on lipid peroxidation at 100 uM preincubated for 30 mins followed by PMA stimulation measured after 30 mins by C11-Bodipy fluorescent dye based flow cytometry; type: functional, cell-based
THP-1 [13] = assay: Inhibition of Pseudomonas aeruginosa-induced pyroptosis in human THP1 cells at 10 uM preincubated for 1 hr followed by bacterial infection and measured after 2 hrs by INT dye based LDH assay; type: functional, cell-based
THP-1 [14] = assay: Inhibition of Staphylococcus aureus-induced pyroptosis in human THP1 cells at 10 uM preincubated for 1 hr followed by bacterial infection and measured after 2 hrs by INT dye based LDH assay; type: functional, cell-based

Structure (SMILES): COc1ccc(CNC2=C(c3cn(C)c4ccccc34)C(=O)N(C)C2=O)cc1
- IC50 (HL-60): 860 nM

Structure (SMILES): CN1C(=O)C(N)=C(c2cn(C)c3ccccc23)C1=O
- IC50 (HL-60): 4500 nM

Structure (SMILES): CCCNC1=C(c2cn(C)c3ccccc23)C(=O)N(C(CC)CC)C1=O
- IC50 (HL-60): 480 nM

Structure (SMILES): CCCNC1=C(c2cn(C)c3ccccc23)C(=O)N(C(C)C)C1=O
- IC50 (HL-60): 34 nM

Structure (SMILES): CN1C(=O)C(NCC2CCCCC2)=C(c2cn(C)c3ccccc23)C1=O
- IC50 (HL-60): 390 nM

Structure (SMILES): CC(C)NC1=C(c2cn(C)c3ccccc23)C(=O)N(C)C1=O
- IC50 (HL-60): 480 nM

Structure (SMILES): C[C@H](NC1=C(c2cn(C)c3ccccc23)C(=O)N(C)C1=O)c1ccccc1
- IC50 (HL-60): 510 nM

Structure (SMILES): CCOC(=O)c1ccc(NC2CCCCC2)c(N)c1
- inhibition (Neutrophil [1]): Active
- inhibition (Neutrophil [2]): inactive
- inhibition (Neutrophil [3]): inactive
- IC50 (NIH3T3 [4]): 220 nM
- inhibition (Neutrophil [5]): inactive
- inhibition (Neutrophil [6]): inactive
- IC50 (NIH3T3 [7]): 270 nM

Structure (SMILES): CN(C)C1=C(c2cn(C)c3ccccc23)C(=O)N(C)C1=O
- IC50 (HL-60): 4300 nM

Structure (SMILES): CN1C(=O)C(NC(c2ccccc2)c2ccccc2)=C(c2cn(C)c3ccccc23)C1=O
- IC50 (HL-60): 1200 nM

- solubility at 0.5 h [8]: 71 mM
Structure (SMILES): CN1C(=O)C(NCCN)=C(c2cn(C)c3ccccc23)C1=O.Cl

Structure (SMILES): CN1C(=O)C(NC2CCCCC2)=C(c2cn(C)c3ccccc23)C1=O
- IC50 (HL-60): 1000 nM

Structure (SMILES): CC(=O)N[C@@H](CS)C(=O)O
- inhibition (Neutrophil [9]): inactive

Structure (SMILES): CN1C(=O)C(NC2CCCC2)=C(c2cn(C)c3ccccc23)C1=O
- IC50 (HL-60): 300 nM

Structure (SMILES): CN1C(=O)C(NCc2ccco2)=C(c2cn(C)c3ccccc23)C1=O
- IC50 (HL-60): 710 nM

Structure (SMILES): CCCNC1=C(c2cn(C)c3ccccc23)C(=O)N(CC)C1=O
- IC50 (HL-60): 750 nM

Structure (SMILES): CC(=O)N(O)CCCCCNC(=O)CCC(=O)N(O)CCCCCNC(=O)CCC(=O)N(O)CCCCCN [DEFEROXAMINE]
- inhibition (Neutrophil [10]): inactive
- inhibition (Neutrophil [11]): inactive
- IC50 (NIH3T3 [4]): 9000 nM
- Activity (Neutrophil [12]): inactive
- IC50 (NIH3T3 [7]): 4900 nM

Structure (SMILES): CN1C(=O)C(NCc2cccnc2)=C(c2cn(C)c3ccccc23)C1=O
- IC50 (HL-60): 1300 nM

Structure (SMILES): CCCNC1=C(c2cn(C)c3ccccc23)C(=O)N(Cc2ccccc2)C1=O
- IC50 (HL-60): 450 nM

Structure (SMILES): CN1C(=O)C(NC2CC2)=C(c2cn(C)c3ccccc23)C1=O
- IC50 (HL-60): 3800 nM

Structure (SMILES): CN1C(=O)C(NCc2ccccc2Cl)=C(c2cn(C)c3ccccc23)C1=O
- IC50 (HL-60): 1700 nM

Structure (SMILES): CN1C(=O)C(c2cn(C)c3ccccc23)=C(N2CCCC2)C1=O
- IC50 (HL-60): 4700 nM

Structure (SMILES): CN1C(=O)C(NCc2ccccc2)=C(c2cn(C)c3ccccc23)C1=O
- IC50 (HL-60): 330 nM

Structure (SMILES): CCCCCN1C(=O)C(NCCC)=C(c2cn(C)c3ccccc23)C1=O
- IC50 (HL-60): 320 nM

Structure (SMILES): CCCNC1=C(c2cn(C)c3ccccc23)C(=O)N(C2CCCC2)C1=O
- IC50 (HL-60): 280 nM

Structure (SMILES): CN1C(=O)C(NCc2ccncc2)=C(c2cn(C)c3ccccc23)C1=O
- IC50 (HL-60): 1200 nM

Structure (SMILES): CN1C(=O)C(NCc2ccc(Cl)cc2)=C(c2cn(C)c3ccccc23)C1=O
- IC50 (HL-60): 310 nM

Structure (SMILES): CN(C)CCNC1=C(c2cn(C)c3ccccc23)C(=O)N(C)C1=O
- IC50 (HL-60): 760 nM

Structure (SMILES): CN(C)CCCNC1=C(c2cn(C)c3ccccc23)C(=O)N(C)C1=O
- IC50 (HL-60): 610 nM

- solubility at 0.5 h [8]: < 0.001 mM
Structure (SMILES): CCCCCNC1=C(c2cn(C)c3ccccc23)C(=O)N(C)C1=O

Structure (SMILES): CCCCN1C(=O)C(NCCC)=C(c2cn(C)c3ccccc23)C1=O
- IC50 (HL-60): 350 nM

Structure (SMILES): COc1cccc(CNC2=C(c3cn(C)c4ccccc34)C(=O)N(C)C2=O)c1
- IC50 (HL-60): 420 nM

Structure (SMILES): CCCNC(=O)[C@H]1O[C@@H]1C(=O)N[C@H](C(=O)N1CCC[C@H]1C(=O)OC)[C@@H](C)CC
- inhibition (THP-1 [13]): Active
- inhibition (THP-1 [14]): Active

Structure (SMILES): CN1C(=O)C(NC(C)(C)C)=C(c2cn(C)c3ccccc23)C1=O
- IC50 (HL-60): 880 nM

Structure (SMILES): CCCNC1=C(c2cn(C)c3ccccc23)C(=O)N(C(c2ccccc2)(c2ccccc2)c2ccccc2)C1=O
- IC50 (HL-60): 800 nM

Structure (SMILES): CN1C(=O)C(NCc2cccc(Cl)c2)=C(c2cn(C)c3ccccc23)C1=O
- IC50 (HL-60): 280 nM

Structure (SMILES): CN1C(=O)C(NCCc2ccccc2)=C(c2cn(C)c3ccccc23)C1=O
- IC50 (HL-60): 650 nM

Structure (SMILES): CCCCCCCCCCCCCN1C(=O)C(NCCC)=C(c2cn(C)c3ccccc23)C1=O
- IC50 (HL-60): 400 nM

Structure (SMILES): CN1C(=O)C(NCc2ccccn2)=C(c2cn(C)c3ccccc23)C1=O
- IC50 (HL-60): 1300 nM

Structure (SMILES): CCCNC1=C(c2cn(C)c3ccccc23)C(=O)N(CCC)C1=O
- IC50 (HL-60): 610 nM

Structure (SMILES): COc1ccccc1CNC1=C(c2cn(C)c3ccccc23)C(=O)N(C)C1=O
- IC50 (HL-60): 480 nM

Structure (SMILES): C[C@@H](NC1=C(c2cn(C)c3ccccc23)C(=O)N(C)C1=O)c1ccccc1
- IC50 (HL-60): 390 nM
